# Experimental data published in US8273749B2, “N-substituted oxindoline derivatives as calcium channel blockers” (Merck Sharp & Dohme Corp., priority 2007, dated 2012).
# Biological target: T1, N-type calcium channel (Cav2.2) (Homo sapiens, UniProt Q00975)
# T1 construct: expressed in transfected cells
# Assay: Cav2.2 (N-type) calcium channel block: fluorescent potassium-depolarization assay and IonWorks / PatchXpress / manual patch clamp electrophysiology
# Format: cell-based
# Settings: aforementioned assays (Assay Examples 1-3); which assay or condition is not specified; read-out: IC50 in antagonizing the N-type calcium channel
# Excerpt: Human Cav2.2 channels were stably expressed in HEK293 cells along with alpha2-delta and beta subunits of voltage-gated calcium channels. An inwardly rectifying potassium channel (Kir2.3) was also expressed in these cells to allow more precise control of the cell membrane potential by extracellular potassium concentration. At low bath potassium concentration, the membrane potential is relatively negative, and is depolarized as the bath potassium concentration is raised. In this way, the bath potassium concentration can be used to regulate the voltage-dependent conformations of the channels. Compounds are incubated with cells in the presence of low (4 mM) potassium or elevated (12, 25 or 30 mM) potassium to determine the affinity for compound block of resting (closed) channels at 4 mM potassium or affinity for block of open and inactivated channels at 12, 25 or 30 mM potassium. After the incubation period, Cav2.2 channel opening is triggered by addition of higher concentration of potassium (70 mM final concentration) to further depolarize the cell. The degree of state-dependent block can be estimated from the inhibitory potency of compounds after incubation in different potassium concentrations.
# Calcium influx through Cav2.2 channels is determined using a calcium-sensitive fluorescent dye in combination with a fluorescent plate reader. Fluorescent changes were measured with either a VIPR (Aurora Instruments) or FLIPR (Molecular Devices) plate reader.
# • 1. Seed cells in Poly-D-Lysine Coated 96- or 384-well plate and keep in a 37° C.-10% CO2 incubator overnight • 2. […] Read cell plate on VIPR instrument, Excitation=480 nm, Emission=535 nm • 9. With VIPR continuously reading, add 0.1 mL (96-well plate) or 0.03 mL (384-well plate) of Depolarization Buffer, which is 2× the final assay concentration, to the cell plate. […]
# Block of N-type calcium channels is evaluated utilizing the IonWorks HT 384 well automated patch clamp electrophysiology device. […]
# T1 sequence (Q00975 whole entry): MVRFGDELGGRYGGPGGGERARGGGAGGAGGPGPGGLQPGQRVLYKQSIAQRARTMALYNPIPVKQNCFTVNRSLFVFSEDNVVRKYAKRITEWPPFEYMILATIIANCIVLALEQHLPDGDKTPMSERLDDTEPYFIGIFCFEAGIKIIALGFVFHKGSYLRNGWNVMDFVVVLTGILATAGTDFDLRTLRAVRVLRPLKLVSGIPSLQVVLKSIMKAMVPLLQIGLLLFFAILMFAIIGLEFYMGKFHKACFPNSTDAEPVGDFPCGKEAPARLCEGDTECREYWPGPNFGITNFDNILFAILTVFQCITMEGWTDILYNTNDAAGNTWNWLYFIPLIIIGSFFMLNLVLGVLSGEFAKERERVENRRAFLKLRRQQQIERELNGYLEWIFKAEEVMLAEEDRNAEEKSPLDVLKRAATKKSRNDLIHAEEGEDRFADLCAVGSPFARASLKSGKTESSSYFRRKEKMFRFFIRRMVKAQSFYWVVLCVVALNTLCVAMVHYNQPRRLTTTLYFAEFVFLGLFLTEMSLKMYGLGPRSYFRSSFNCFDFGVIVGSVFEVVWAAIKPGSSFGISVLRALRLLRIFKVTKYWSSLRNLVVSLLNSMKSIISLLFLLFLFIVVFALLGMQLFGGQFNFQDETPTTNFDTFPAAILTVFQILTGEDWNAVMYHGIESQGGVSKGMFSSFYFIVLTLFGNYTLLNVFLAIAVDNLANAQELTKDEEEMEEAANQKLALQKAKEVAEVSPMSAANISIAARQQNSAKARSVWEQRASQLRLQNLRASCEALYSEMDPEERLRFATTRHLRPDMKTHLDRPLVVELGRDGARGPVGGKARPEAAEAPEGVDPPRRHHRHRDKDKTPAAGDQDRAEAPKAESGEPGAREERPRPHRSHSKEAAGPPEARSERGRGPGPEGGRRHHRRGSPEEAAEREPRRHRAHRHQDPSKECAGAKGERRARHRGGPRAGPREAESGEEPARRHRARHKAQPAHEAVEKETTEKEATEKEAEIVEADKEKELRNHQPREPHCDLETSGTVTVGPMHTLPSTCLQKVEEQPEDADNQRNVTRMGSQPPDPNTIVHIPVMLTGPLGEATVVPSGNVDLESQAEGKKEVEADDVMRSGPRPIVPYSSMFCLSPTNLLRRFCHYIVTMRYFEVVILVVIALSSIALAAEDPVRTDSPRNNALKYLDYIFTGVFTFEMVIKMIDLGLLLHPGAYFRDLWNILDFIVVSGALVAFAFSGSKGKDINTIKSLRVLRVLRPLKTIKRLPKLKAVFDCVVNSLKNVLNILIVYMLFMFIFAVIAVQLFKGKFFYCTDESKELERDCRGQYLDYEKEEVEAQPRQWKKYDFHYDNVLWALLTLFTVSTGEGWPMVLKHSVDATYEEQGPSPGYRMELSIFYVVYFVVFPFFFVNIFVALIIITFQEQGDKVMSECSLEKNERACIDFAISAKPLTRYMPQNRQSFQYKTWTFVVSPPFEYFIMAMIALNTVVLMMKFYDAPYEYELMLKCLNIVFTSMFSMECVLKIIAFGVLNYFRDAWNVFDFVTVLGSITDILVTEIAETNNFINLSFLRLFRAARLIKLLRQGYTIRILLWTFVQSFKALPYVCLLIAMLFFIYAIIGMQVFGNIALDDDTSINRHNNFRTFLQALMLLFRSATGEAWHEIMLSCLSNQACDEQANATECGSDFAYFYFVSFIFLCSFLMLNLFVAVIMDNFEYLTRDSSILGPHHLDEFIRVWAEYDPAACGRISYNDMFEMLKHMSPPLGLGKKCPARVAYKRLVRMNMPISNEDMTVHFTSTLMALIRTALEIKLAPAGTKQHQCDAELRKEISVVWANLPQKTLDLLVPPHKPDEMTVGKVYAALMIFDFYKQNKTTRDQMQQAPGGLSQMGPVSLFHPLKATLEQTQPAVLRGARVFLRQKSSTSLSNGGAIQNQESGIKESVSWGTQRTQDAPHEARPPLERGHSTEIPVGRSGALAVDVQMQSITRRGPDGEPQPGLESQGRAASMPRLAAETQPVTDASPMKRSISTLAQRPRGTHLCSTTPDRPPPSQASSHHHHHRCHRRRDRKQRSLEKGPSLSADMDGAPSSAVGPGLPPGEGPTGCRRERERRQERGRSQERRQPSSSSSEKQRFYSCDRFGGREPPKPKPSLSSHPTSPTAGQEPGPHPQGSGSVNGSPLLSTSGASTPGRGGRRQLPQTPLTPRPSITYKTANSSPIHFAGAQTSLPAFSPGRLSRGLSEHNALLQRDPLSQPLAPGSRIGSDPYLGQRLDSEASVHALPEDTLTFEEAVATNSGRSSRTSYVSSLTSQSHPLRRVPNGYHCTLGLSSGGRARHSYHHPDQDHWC
row,IC50 [µM],SMILES
1,0.52,"CC1(Cc2cncnc2)C(=O)N(c2cnc(N)cn2)c2ccc(-c3ccc(F)c(Cl)c3)cc21 (stereo not drawn) [Example 10, 1-(5-aminopyrazin-2-yl)-5-(3-chloro-4-fluorophenyl)-3-methyl-3-(pyrimidin-5-ylmethyl)-1,3-dihydro-2H-indol-2-one]"
2,0.23,"CC1(Cc2cncnc2)C(=O)N(c2nc[nH]n2)c2ccc(-c3ccc(F)c(Cl)c3)cc21 (stereo not drawn) [Example 2, 5-(3-chloro-4-fluorophenyl)-3-methyl-3-(pyrimidin-5-ylmethyl)-1-(1H-1,2,4-triazol-3-yl)-1,3-dihydro-2H-indol-2-one]"
3,0.26,"Cn1cnc(N2C(=O)C(C)(Cc3cncnc3)c3cc(-c4cccc(OC(F)(F)F)c4)ccc32)c1 (stereo not drawn) [Example 18, 3-methyl-1-(1-methyl-1H-imidazol-4-yl)-3-pyrimidin-5-ylmethyl-5-(3-trifluoromethoxy-phenyl)-1,3-dihydro-indol-2-one]"
